Measured values taken from patent US8481537B2, “Caspase inhibitors based of pyridazinone scaffold” (LG Life Sciences Ltd., priority 2006, dated 2013).

Columns and labels:
[1] = biological target: T1, Caspase-8 (Homo sapiens, UniProt Q14790); assay: Caspase inhibitory effect, fluorescent substrate AcDEVD-AFC; type: biochemical; conditions: pH 7.5; 2.1 nM caspase-8, 50 μM AcDEVD-AFC, 25° C., pH 7.50; read-out: Caspase-8 Kobs/[I] (converted)
T1 construct: p10 and p20 subunits (Thornberry, N. A. et al, Nature, 1992, 356, 768) were expressed in E. coli; made in house; host or cells: E. coli
T1 sequence (Q14790 217-374 limits assumed, species assumed): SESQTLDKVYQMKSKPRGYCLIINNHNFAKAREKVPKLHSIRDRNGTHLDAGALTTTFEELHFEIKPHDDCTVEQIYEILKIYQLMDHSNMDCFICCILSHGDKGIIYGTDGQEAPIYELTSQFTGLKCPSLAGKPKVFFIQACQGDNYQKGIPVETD
T1 sequence (Q14790 385-479 limits assumed, species assumed): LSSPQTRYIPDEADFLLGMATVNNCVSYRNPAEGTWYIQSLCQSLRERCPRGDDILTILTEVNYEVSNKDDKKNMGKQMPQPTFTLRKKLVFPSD
Method: Caspase-1 and caspase-8 known as cysteine proteases in the form of α2β2 were expressed, purified, and activated by modifying a method known in Thornberry, N. A. et al, Nature, 1992, 356, 768. Thornberry, N. A. Methods in Enzymology, 1994, 244, 615. Walker, N. P. C. et al. Cell, 1994, 78, 343, and caspase-9 was also purified by a similar method, and the inhibitory activity against them was tested. Briefly describing, p10 and p20 subunits (Thornberry, N. A. et al, Nature, 1992, 356, 768) were expressed in E. coli and purified by nickel column and anionic exchange chromatography to give caspase-1, caspase-8 and caspase-9. The fluorescent substrates AcYVAD-AFC for thus obtained caspase-1, AcDEVD-AFC for caspase-8, and AcLEHD-AFC for caspase-9, were used for determining specific activity of the synthesized inhibitors. The enzyme reaction was carried out at 25° C. with various concentrations of the inhibitors in a buffer solution containing 50 mM HEPES(pH 7.50), 10% (w/v) sucrose, 0.1% (w/v) CHAPS, 100 mM NaCl, 1 mM EDTA, and 10 mM DTT in the presence of 50 μM AcYVAD-AFC for 10 nM caspase-1, 50 μM AcDEVD-AFC for 2.1 nM caspase-8, and 150 μM AcLEHD-AFC for 200 nM caspase-9. The inhibitory constants Ki and Kobs of the inhibitors were determined by measuring the reaction velocity with the time lapse using a fluorescent spectrometer and by obtaining the initial rate constant. Ki was calculated from the Lineweaver Burk Plot, and Kobs from the following Equation 1. Kobs=−ln(1−At/Aoo)/t [Equation 1]
At means cleavage rate (%) at time t, and
Aoo means the maximum cleavage rate (%).
Spectra MAX GeminiXS Fluorescent Spectrometer of Molecular Device Co. was used at the excitation wavelength of 405 nm and the emission wavelength of 505 nm.

[2] = system: Jurkat cell (ATCC TIB-152); assay: Jurkat cell apoptosis induced by Fas antibody, WST-1 method; type: cell-based; conditions: Homo sapiens, amount of alive cells by WST-1
Method: The […] inhibitory activity of the inhibitors was determined by subjecting Jurkat cell (ATCC TIB-152) to apoptosis using Fas antibody (Upstate Biotech 05-201) and by detecting the color change according to the WST-1 method known in Francoeur A. M. and Assalian A. (1996) Biochemica 3, 19-25 to observe the amount of alive Jurkat cells when the cells were treated by the inhibitor. Spectra MAX 340 Spectrometer of Molecular Device Co. was used at the absorbance wavelength of 440 nm.

kinact/KI [1] | IC50 [2] | Structure (SMILES)
63300 M⁻¹ s⁻¹ | 12 nM | CC[C@@H](C(=O)N[C@@H](CC(=O)O)C(=O)COc1c(F)c(F)cc(F)c1F)c1ccnn(Cc2ccccc2C(C)(C)C)c1=O [Example 24-1, (S)-3-{(R)-2-[2-(2-tert-Butyl-benzyl)-3-oxo-2,3-dihydro-pyridazin-4-yl]-butyrylamino}-4-oxo-5-(2,3,5,6-tetrafluoro-phenoxy)-pentanoic acid]
1830 M⁻¹ s⁻¹ | 4150 nM | CC[C@H](C(=O)N[C@@H](CC(=O)O)C(=O)COc1c(F)c(F)cc(F)c1F)c1ccnn(Cc2ccccc2C(C)(C)C)c1=O [Example 24-2, (S)-3-{(S)-2-[2-(2-tert-Butyl-benzyl)-3-oxo-2,3-dihydro-pyridazin-4-yl]-butyrylamino}-4-oxo-5-(2,3,5,6-tetrafluoro-phenoxy)-pentanoic acid]
26700 M⁻¹ s⁻¹ | 31 nM | CC[C@@H](C(=O)N[C@@H](CC(=O)O)C(=O)COc1c(F)c(F)cc(F)c1F)c1ccnn(Cc2cccc(C(C)(C)C)c2)c1=O [Example 25-1, (S)-3-{(R)-2-[2-(3-tert-Butyl-benzyl)-3-oxo-2,3-dihydro-pyridazin-4-yl]-butyrylamino}-4-oxo-5-(2,3,5,6-tetrafluoro-phenoxy)-pentanoic acid]
900 M⁻¹ s⁻¹ | 1940 nM | CC[C@H](C(=O)N[C@@H](CC(=O)O)C(=O)COc1c(F)c(F)cc(F)c1F)c1ccnn(Cc2cccc(C(C)(C)C)c2)c1=O [Example 25-2, (S)-3-{(S)-2-[2-(3-tert-Butyl-benzyl)-3-oxo-2,3-dihydro-pyridazin-4-yl]-butyrylamino}-4-oxo-5-(2,3,5,6-tetrafluoro-phenoxy)-pentanoic acid]
28300 M⁻¹ s⁻¹ | 45 nM | CC[C@@H](C(=O)N[C@@H](CC(=O)O)C(=O)COc1c(F)ccc(F)c1F)c1ccnn(Cc2ccccc2C(C)(C)C)c1=O [Example 26-1, (S)-3-{(R)-2-[2-(2-tert-Butyl-benzyl)-3-oxo-2,3-dihydro-pyridazin-4-yl]-butyrylamino}-4-oxo-5-(2,3,6-trifluoro-phenoxy)-pentanoic acid]
11700 M⁻¹ s⁻¹ | 90 nM | CC[C@@H](C(=O)N[C@@H](CC(=O)O)C(=O)COc1c(F)cccc1F)c1ccnn(Cc2ccccc2C(C)(C)C)c1=O [Example 27-1, (S)-3-{(R)-2-[2-(2-tert-Butyl-benzyl)-3-oxo-2,3-dihydro-pyridazin-4-yl]-butyrylamino}-5-(2,6-difluoro-phenoxy)-4-oxo-pentanoic acid]
56700 M⁻¹ s⁻¹ | 365 nM | CCC(C(=O)N[C@@H](CC(=O)O)C(=O)COP(=O)(c1ccccc1)c1ccccc1)c1ccnn(Cc2ccccc2C(C)(C)C)c1=O (stereo partly drawn) [Example 28, (S)-3-{2-[2-(2-tert-Butyl-benzyl)-3-oxo-2,3-dihydro-pyridazin-4-yl]-butyrylamino}-5-(diphenyl-phosphinoyloxy)-4-oxo-pentanoic acid]
